In brackets after ≈: the same amount, converted by molar mass. Like-named read-outs stand apart in the source and are kept apart here.
Legend:
[1] = test system: blue mussel; assay: Antifouling (adhesion repellent) activity against blue mussel (Example 7); assay type: in vivo, Mytilus edulis; parameters: key: ++: not adhered in the zone and strong repellent effect is observed; +: adhesion in zone is observed but most of them adhered out of zone and repellent effect is observed; -: adhered in and out of zone alike and repellent effect is not observed; conditions: seawater, dark, 3 hours
Description: The compound of the invention was completely dissolved in 1 ml of acetone and the resulting solution was uniformly applied to a 4 cm-diameter zone drawn on a test plate. A zone coated with acetone alone as blank and zones coated with 1.0 mg and 0.5 mg of copper sulfate as a comparison chemical were also prepared. After drying, four blue mussel having a shell length of about 2 to 2.5 cm were adhered around each zone using a rubber piece as a spacer. The thus prepared test plate was immersed in a water tank to which seawater ran and left to stand in the dark for 3 hours.
The adhesion controlling effect (adhesion repellent activity) was obtained from comparison with copper sulfate used as a comparison chemical.
The evaluation of adhesion repellent activity was based on "Evaluation method of adhesion repellent substance to marine adhesion organisms using Mytilus edulis" written by Kazuo Ina and Hideo Etoh (Chemistry and Biology, vol.28 (No.2), pp.132-138, 1990).
Symbols in the table mean the followings; • ++: not adhered in the zone and strong repellent effect is observed, • +: adhesion in zone is observed but most of them adhered out of zone and repellent effect is observed, • -: adhered in and out of zone alike and repellent effect is not observed.

[2] = test system: Trichophyton mentagrophytes; assay: Agar dilution MIC (Example 2); assay type: cell-based; conditions: 168 h, agar plate, 27 °C, 7 days
Description: (§1) Series of diluted samples (20000, 10000, 5000, 2500, 2000, 1250, 625, 313, 156, 78, 39, 20, 10, 5, 2.5, 1.25 mg/l) of the compounds of the invention were prepared using dimethylsulfoxide. A sensitive culture medium-N (Nissui Seiyaku Co.) was used for bacteria and a potato dextrose agar culture medium (Nissui Seiyaku Co.) was used for fungi. 0.5 ml of each sample was added to and mixed with 9.5 ml of the culture medium, poured into a Petri dish and solidified to obtain a plate. As a result, the concentration of the compounds of the invention in the agar culture medium were 1000, 500, 250, 125, 100, 62.5, 31.3, 15.6, 7.8, 3.9, 2.0, 1.0, 0.5, 0.25, 0.125, 0.062 mg/l. The bacterium inoculated were cultured in a bouillon for the assay of sensitivity (Nissui Seiyaku Co.) at 37 °C for 20 hours, and the fungi were cultured in the potato dextrose agar culture medium (Nissui Seiyaku Co.) for 10 days and then a 10^6 CFU/ml suspension was prepared from each of them. A test bacteria or fungi suspension was streaked on an agar plate containing the compound of the present invention with platinum wire loop, and the agar plate was cultured at 37±1 °C for 18 to 20 hours for bacteria or at 27 °C for 7 days for fungi. A concentration at which no growth was seen was taken as minimum inhibitory concentration [MIC(mg/l)]. Symbols in the table mean the followings; • A: Bacillus subtilis, • B: Trichophyton mentagrophytes, • C: Rhodotorula mucilaginosa.

[3] = test system: Bacillus subtilis; assay: Agar dilution MIC (Example 2); assay type: cell-based; conditions: agar plate, 37±1 °C, 18 to 20 hours
Description: as §1

[4] = test system: Staphylococcus aureus; assay: Agar dilution MIC (Example 3); assay type: cell-based; conditions: agar plate, 37±1 °C, 18 to 20 hours
Description: (§2) Series of diluted samples (20000, 10000, 5000, 2500, 1250, 625, 313, 156, 78, 39 mg/l) of the compounds of the invention were prepared using dimethylsulfoxide. A sensitive culture medium-N (Nissui Seiyaku Co.) was used for bacteria and a potato dextrose agar culture medium (Nissui Seiyaku Co.) was used for fungi. 0.5 ml of each sample was added to and mixed with 9.5 ml of the culture medium, poured into a Petri dish and solidified to obtain a plate. As a result, the concentration of the compounds of the invention in the agar culture medium were 1000, 500, 250, 125, 62.5, 31.3, 15.6, 7.8, 3.9, 2.0 mg/l. The bacterium inoculated were cultured in a bouillon for the assay of sensitivity (Nissui Seiyaku Co.) at 37 °C for 20 hours, and the fungi were cultured in the potato dextrose agar culture medium (Nissui Seiyaku Co.) for 10 days and then a 10^6 CFU/ml suspension was prepared from each of them. A test bacteria or fungi suspension was streaked on an agar plate containing the compound of the present invention with platinum wire loop, and the agar plate was cultured at 37±1 °C for 18 to 20 hours for bacteria or at 27 °C for 7 days for fungi. A concentration at which no growth was seen was taken as minimum inhibitory concentration (MIC). Symbols in the tables mean the followings; • A: Bacillus subtilis, • B: Trichophyton mentagrophytes, • C: Staphylococcus aureus, • D: Aspergillus niger, • E: Penicillium funiculosum, • F: Candida albicans, • G: Micrococcus luteus, • H: Corynebacterium aquaticum, • I: Chaetomium globosum, • J: Fusarium moniliforme, • K: Saccharomyces cerevisiae, • L: Rhodotorula rubra, • M: Cladosporium cladosporioides, • N: Alternaria alternata.

[5] = test system: Trichophyton mentagrophytes; assay: Agar dilution MIC (Example 3); assay type: cell-based; conditions: 168 h, agar plate, 27 °C, 7 days
Description: as §2

[6] = test system: Bacillus subtilis; assay: Agar dilution MIC (Example 3); assay type: cell-based; conditions: agar plate, 37±1 °C, 18 to 20 hours
Description: as §2

[7] = test system: freshwater green alga (Selenastrum capricornutum); assay: Inhibition of propagation of freshwater green alga (Example 4); assay type: cell-based; conditions: for inhibition at 0.5 ppm: read-out: Propagation inhibiting rate(%) 500ppb
Description: A predetermined amount of each of the compounds of the invention was dissolved in a culture medium containing 10^5 /ml of a freshwater green alga (Selenastrum capricornutum) at a logarithmic growth phase to prepare samples having a concentration of the compound of the invention in the medium of 500 ppb and 50ppb respectively. The samples were stationary cultured at 23±1 °C for […] under continuous illumination.
After 72 hours, the number of cells was measured using a hemacytometer to obtain propagation rate. The propagation inhibiting rate was calculated from comparison with the non-treated lot.

[8] = test system: Trichophyton mentagrophytes; assay type: cell-based; conditions: 72 h, 100 ppm
Description: 31.3 ml of Trichophyton mentagrophytes to be tested was added to 125 ml of a potato dextrose agar culture medium (Nissui Seiyaku Co.). The medium was stirred not to foam the solutions, poured into plates uniformly and solidified.
Thereafter, predetermined amounts of the compounds of the invention were weighted and diluted with acetone to predetermined concentrations.
Paper disks were impregnated with samples containing predetermined amounts of the compounds of the invention, laid on a filter, dried with air and placed on a plate containing test microbe at equal intervals.
Trichophyton mentagrophytes was cultured at 28 °C for 3 days in a thermostatic chamber and the diameter of each inhibiting zone was measured to evaluate the activity of each compound. Symbols in the table mean the followings; • A: Trichophyton mentagrophytes, • ++: strongly inhibiting zone (equal to or more than 21 mm) is observed, • +: inhibiting zone (10 to 20 mm) is observed, • -: no inhibiting zone is observed.

[9] = test system: seawater diatom [Nitzschia closterium]; assay: Inhibition of propagation of seawater diatom (Example 5); assay type: cell-based; conditions: Cylindrotheca closterium, 72 h, read-out: Propagation inhibiting rate(%) 500ppb
Description: A predetermined amount of each of the compounds of the invention was dissolved in culture media containing 10^5 /ml of a seawater diatom [Nitzschia closterium] at a logarithmic growth phase to prepare samples having a concentration of the compound in the medium of 500 ppb. The samples were stationary cultured at 22±1 °C for […] under continuous illumination.
After 72 hours, cells were collected by centrifugation and disrupted by addition of methanol to extract chlorophyll, and the amount of chlorophyll was measured from absorbance using a spectrophotometer to obtain propagation rate. The propagation inhibiting rate was calculated from comparison with the non-treated lot.

[10] = test system: freshwater green alga (Scenedesmus pannonicus); assay: Inhibition of propagation of freshwater algae (Example 6); assay type: cell-based; conditions: Desmodesmus pannonicus, 500ppb
Description: A predetermined amount each of the compounds of the invention was dissolved in a culture medium containing 10^5 /ml of a freshwater alga at a logarithmic growth phase to prepare samples having a concentration of the compound of the invention in the medium of 500 ppb and 50 ppb respectively. A shaking culture at 100 rpm was performed for […] under continuous illumination at 20±2 °C for freshwater diatom and at 23±2 °C for other algae.
After 72 hours and 168 hours, the […] of cells was measured using a hemacytometer to obtain propagation rate. The propagation inhibiting rate was calculated from comparison with the non-treated lot. Symbols in the tables mean the followings; • A: freshwater green alga (Chlorella pyrenoidosa), • B: freshwater blue-green alga (Microcystis aeruginosa), • C: freshwater diatom (Diatoma elongatum), • D: freshwater green alga (Scenedesmus pannonicus).

Row | SMILES | Judgment (adhesion repellent activity against blue mussel) ([1]; Amount of chemical 0.5 mg on 4 cm-diameter zone) | Judgment (adhesion repellent activity against blue mussel) ([1]; Amount of chemical 1.0 mg on 4 cm-diameter zone) | MIC [2] [µg/mL] | MIC [3] [µg/mL] | MIC [4] [µg/mL] | MIC [5] [µg/mL] | MIC [6] [µg/mL] | inhibition at 0.05 ppm ([7]; 72 h, read-out: Propagation inhibiting rate(%) 50ppb) [%] | inhibition at 0.5 ppm ([7]; 72 h) [%] | Judgment (Target bacteria: A) [8] | inhibition at 0.5 ppm [9] [%] | inhibition at 0.5 ppm ([10]; 72hr, read-out: Propagation inhibiting rate (%) 500ppb 72hr) [%] | inhibition at 0.5 ppm ([10]; 168hr, read-out: Propagation inhibiting rate (%) 500ppb 168hr) [%] | Judgment (adhesion repellent activity against blue mussel) ([1]; Amount of chemical 2.0 mg on 4 cm-diameter zone) | inhibition at 0.5 ppm ([7]; 500ppb, after 72 hours, cell number vs non-treated lot) [%]
1 | O=S(=O)([O-])[O-].[Cu+2] [Copper sulfate] | - | + |  |  |  |  |  |  |  |  |  |  |  |  | 
2 | CN(Cc1ccc(C(C)(C)C)cc1)Cc1ccc(Cl)c(Cl)c1 [Compound 3] |  |  | < 2 | 125 (≈ 372 µM) | 125 (≈ 372 µM) | < 2 | 125 (≈ 372 µM) | 90 | 94 | + (inhibiting zone (10 to 20 mm) is observed) |  |  |  |  | 
3 | CN(Cc1ccc(C(C)(C)C)cc1)C1CCc2ccccc21 (stereo not drawn) [Compound 7] |  |  | 1 (≈ 3.41 µM) |  |  | < 2 |  |  |  | ++ (strongly inhibiting zone (equal to or more than 21 mm) is observed) | 91 | 92 | 99 | ++ | 62

Source: patent EP1059033A1, “INDUSTRIAL ANTIBACTERIAL/ANTIFUNGAL AGENTS, ALGICIDES AND ANTI-BIOLOGICAL ADHESION AGENTS CONTAINING BENZYLAMINES” (Nissan Chemical Industries, Ltd., priority 1998, dated 1999)
